This note sets out measurements from patent US20230011869A1 (Hoffmann-La Roche Inc., priority 2018, published 2023).

Where a name gives a salt, the structure may show the parent alone.

The subject of one test is Acinetobacter baumannii ATCC17978. Description: Antimicrobial susceptibility testing: 90% growth inhibitory concentration (IC90) determination, Iso-Sensitest broth. Format: cell-based. The settings on record: 90% growth inhibitory concentration, Acinetobacter baumannii ATCC17978, Iso-Sensitest broth, OD 600 nm over 16 h; read-out: ATCC17978 IC90. The method, boiled down: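 A. baumannii ATCC17978 grown in Iso-Sensitest broth across 10 compound concentrations at 35±2 °C.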
On to `COc1ccc(-c2cnc3c(Nc4ccc(C(=O)N5CCC(CN)CC5)c(C(F)F)c4)nccn23)cc1F` [Example 340, [4-(aminomethyl)piperidin-1-yl]-[2-(difluoromethyl)-4-[[3-(3-fluoro-4-methoxyphenyl)imidazo[1,2-a]pyrazin-8-yl]amino]phenyl]methanone], for which the IC90 is 500 nM.
On to `COc1ccc(-c2cnc3c(Nc4ccc(C(=O)N5CCC(c6nncn6C)CC5)c(C)c4)nccn23)cc1F` [Example 357, [4-[[3-(3-fluoro-4-methoxyphenyl)imidazo[1,2-a]pyrazin-8-yl]amino]-2-methylphenyl]-[4-(4-methyl-1,2,4-triazol-3-yl)piperidin-1-yl]methanone], for which the IC90 was found to be 330 nM.

The test is the same for the next values; noted with them: Acinetobacter baumannii, ATCC17978, 16 h, read-out: ATCC17978 IC90, 90% growth inhibitory concentration, Acinetobacter baumannii ATCC17978, Iso-Sensitest broth, OD 600 nm over 16 h.
In the case of `CN[C@H](C)C(=O)N1CCN(C(=O)c2ccc(Nc3nccn4c(-c5ccc(OC(F)F)cc5)cnc34)cc2C)CC1` [Example 334, (2R)-1-[4-[4-[[3-[4-(difluoromethoxy)phenyl]imi-dazo[1,2-a]pyrazin-8-yl]amino]-2-methylbenzoyl]piperazin-1-yl]-2-(methylamino)propan-1-one; hydrochloride], the IC90 is 430 nM.
Still for that read-out and setting: next, `Cc1cc(Nc2nccn3c(-c4ccc(OC(F)F)cc4)cnc23)ccc1C(=O)N1CCN(C(=O)C2CNC2)CC1` [Example 335, [4-(azetidine-3-carbonyl)piperazin-1-yl]-[4-[[3-[4-(difluoromethoxy)phenyl]imi-dazo[1,2-a]pyrazin-8-yl]amino]-2-methylphenyl]methanone; hy-drochloride]: 450 nM; `Cc1cc(Nc2nccn3c(-c4ccc(OC(F)F)cc4)cnc23)ccc1C(=O)N1CCN(C(=O)C[C@@H]2CCCN2)CC1` [Example 336, 1-[4-[4-[[3-[4-(difluoromethoxy)phenyl]imi-dazo[1,2-a]pyrazin-8-yl]amino]-2-methylbenzoyl]piperazin-1-yl]-2-[(2S)-pyrrolidin-2-yl]ethanone]: 460 nM.
With `Cc1cc(Nc2nccn3c(-c4ccc(OC(F)F)cc4)cnc23)ccc1C(=O)N1CCN(C(=O)c2ccc(CN3CCNCC3)cc2)CC1` [Example 337, [4-[4-[[3-[4-(difluoromethoxy)phenyl]imi-dazo[1,2-a]pyrazin-8-yl]amino]-2-methylbenzoyl]piperazin-1-yl]-[4-(piperazin-1-ylmethyl)phenyl]methanone; hydrochloride], the IC90 amounted to 470 nM.
Consider `CC(=O)NCCCC[C@H](N)C(=O)N1CCN(C(=O)c2ccc(Nc3nccn4c(-c5ccc(OC(F)F)cc5)cnc34)cc2C)CC1` [Example 338, N-[(5S)-5-amino-6-[4-[4-[[3-[4-(difluoromethoxy)phenyl]imi-dazo[1,2-a]pyrazin-8-yl]amino]-2-methylbenzoyl]piperazin-1-yl]-6-oxohexyl]acetamide; hydrochloride], for which the IC90 worked out at 480 nM.
Still for that read-out and setting: under `Cc1cc(Nc2nccn3c(-c4ccc(OC(F)F)cc4)cnc23)ccc1C(=O)N1CCN(C(=O)C(C)(C)N)CC1` [Example 339, 2-amino-1-[4-[4-[[3-[4-(difluoromethoxy)phenyl]imi-dazo[1,2-a]pyrazin-8-yl]amino]-2-methylbenzoyl]piperazin-1-yl]-2-methylpropan-1-one; hydrochloride] stands 500 nM; under `Cc1cc(Nc2nccn3c(-c4ccc(OC(F)F)cc4)cnc23)ccc1C(=O)N1CCN(C(=O)[C@@H]2CNCCO2)CC1` [Example 341, [4-[[3-[4-(difluoromethoxy)phenyl]imi-dazo[1,2-a]pyrazin-8-yl]amino]-2-methylphenyl]-[4-[(2S)-morpholine-2-carbonyl]piperazin-1-yl]methanone; hydrochloride], 520 nM; under `CCC[C@@H](N)C(=O)N1CCN(C(=O)c2ccc(Nc3nccn4c(-c5ccc(OC(F)F)cc5)cnc34)cc2C)CC1` [Example 342, (2R)-2-amino-1-[4-[4-[[3-[4-(difluoromethoxy)phenyl]imi-dazo[1,2-a]pyrazin-8-yl]amino]-2-methylbenzoyl]piperazin-1-yl]pentan-1-one; hydrochloride], 550 nM.
Consider `CCC[C@H](N)C(=O)N1CCN(C(=O)c2ccc(Nc3nccn4c(-c5ccc(OC(F)F)cc5)cnc34)cc2C)CC1` [Example 343, (2S)-2-amino-1-[4-[4-[[3-[4-(difluoromethoxy)phenyl]imi-dazo[1,2-a]pyrazin-8-yl]amino]-2-methylbenzoyl]piperazin-1-yl]pentan-1-one], for which the IC90 is 560 nM.
Same read-out and setting: next, `CCC(N)C(=O)N1CCN(C(=O)c2ccc(Nc3nccn4c(-c5ccc(OC(F)F)cc5)cnc34)cc2C)CC1` (stereo not shown) [Example 344, 2-amino-1-[4-[4-[[3-[4-(difluoromethoxy)phenyl]imi-dazo[1,2-a]pyrazin-8-yl]amino]-2-methylbenzoyl]piperazin-1-yl]butan-1-one; hydrochloride]: 560 nM.
Same read-out and setting: next, `Cc1cc(Nc2nccn3c(-c4ccc(OC(F)F)cc4)cnc23)ccc1C(=O)N1CCN(C(=O)CNC(=O)CN)CC1` [Example 345, 2-amino-N-[2-[4-[4-[[3-[4-(difluoromethoxy)phenyl]imi-dazo[1,2-a]pyrazin-8-yl]amino]-2-methylbenzoyl]piperazin-1-yl]-2-oxoethyl]acetamide]: 570 nM; `Cc1cc(Nc2nccn3c(-c4ccc(OC(F)F)cc4)cnc23)ccc1C(=O)N1CCN(C(=O)C(O)CO)CC1` (stereo not shown) [Example 346, 1-[4-[4-[[3-[4-(difluoromethoxy)phenyl]imi-dazo[1,2-a]pyrazin-8-yl]amino]-2-methylbenzoyl]piperazin-1-yl]-2,3-dihydroxypropan-1-one]: 620 nM.
On to `Cc1cc(Nc2nccn3c(-c4ccc(OC(F)F)cc4)cnc23)ccc1C(=O)N1CCN(C(=O)CN2CCNCC2)CC1` [Example 347, 1-[4-[4-[[3-[4-(difluoromethoxy)phenyl]imi-dazo[1,2-a]pyrazin-8-yl]amino]-2-methylbenzoyl]piperazin-1-yl]-2-piperazin-1-ylethanone], for which the IC90 is 650 nM.
As for `COc1ccc(-c2cnc3c(Nc4ccc(C(=O)N5CCN(C6CCNC6)CC5)c(C)c4)nccn23)cc1F` (stereo not shown) [Example 348, [4-[[3-(3-fluoro-4-methoxyphenyl)imidazo[1,2-a]pyrazin-8-yl]amino]-2-methylphenyl]-(4-pyrrolidin-3-ylpiperazin-1-yl)methanone; hydrochloride], the IC90 worked out at 660 nM.
On the same count and under the same terms, under `Cc1cc(Nc2nccn3c(-c4ccc(OC(F)F)cc4)cnc23)ccc1C(=O)N1CCC(C(=O)N2C[C@H](O)[C@@H](O)[C@H](O)[C@H]2CO)CC1` [Example 349, [4-[[3-[4-(difluoromethoxy)phenyl]imi-dazo[1,2-a]pyrazin-8-yl]amino]-2-methylphenyl]-[4-[(2R,3R,4R,5S)-3,4,5-trihydroxy-2-(hydroxymethyl)piperidine-1-carbonyl]piperidin-1-yl]methanone] stands 660 nM.
Take `Cc1cc(Nc2nccn3c(-c4ccc(OC(F)F)cc4)cnc23)ccc1C(=O)N1CCC(C(=O)N[C@@H]2[C@@H](O)[C@H](O)[C@@H](CO)O[C@@H]2O)CC1` [Example 350, 1-[4-[[3-[4-(difluoromethoxy)phenyl]imi-dazo[1,2-a]pyrazin-8-yl]amino]-2-methylbenzoyl]-N-[(2S,3R,4R,5S,6R)-2,4,5-trihydroxy-6-(hydroxymethyl)oxan-3-yl]piperidine-4-carboxamide]: the IC90 worked out at 710 nM.
Same read-out and setting: next, `CCNC(=O)CN1CCN(C(=O)c2ccc(Nc3nccn4c(-c5ccc(OC(F)F)cc5)cnc34)cc2C)CC1` [Example 352, 2-[4-[4-[[3-[4-(difluoromethoxy)phenyl]imi-dazo[1,2-a]pyrazin-8-yl]amino]-2-methylbenzoyl]piperazin-1-yl]-N-ethylacetamide]: 220 nM; `Cc1cc(Nc2nccn3c(-c4ccc(OC(F)F)cc4)cnc23)ccc1C(=O)N1CCC(Cn2ccnc2)CC1` [Example 353, [4-[[3-[4-(difluoromethoxy)phenyl]imi-dazo[1,2-a]pyrazin-8-yl]amino]-2-methylphenyl]-[4-(imidazol-1-ylmethyl)piperidin-1-yl]methanone]: 240 nM.
Still for that read-out and setting: next, `Cc1cc(Nc2nccn3c(-c4ccc(OC(F)F)cc4)cnc23)ccc1C(=O)N1CCC(Cn2cnnc2)CC1` [Example 354, [4-[[3-[4-(difluoromethoxy)phenyl]imi-dazo[1,2-a]pyrazin-8-yl]amino]-2-methylphenyl]-[4-(1,2,4-triazol-4-ylmethyl)piperidin-1-yl]methanone]: 240 nM.
Turning to `Cc1cc(Nc2nccn3c(-c4ccc(OC(F)F)cc4)cnc23)ccc1C(=O)N1CCN(CCN2CCCCC2)CC1` [Example 355, [4-[[3-[4-(difluoromethoxy)phenyl]imi-dazo[1,2-a]pyrazin-8-yl]amino]-2-methylphenyl]-[4-(2-piperidin-1-ylethyl)piperazin-1-yl]methanone], the IC90 came out at 260 nM.
`Cc1cc(Nc2nccn3c(-c4ccc(OC(F)F)cc4)cnc23)ccc1C(=O)N1CCC(c2nccn2C)CC1` [Example 356, [4-[[3-[4-(difluoromethoxy)phenyl]imi-dazo[1,2-a]pyrazin-8-yl]amino]-2-methylphenyl]-[4-(1-methylimidazol-2-yl)piperidin-1-yl]methanone]: the IC90 is 300 nM.
In the case of `CNCCNC(=O)C1CCN(C(=O)c2ccc(Nc3nccn4c(-c5ccc(OC(F)F)cc5)cnc34)cc2C)CC1` [Example 358, 1-[4-[[3-[4-(difluoromethoxy)phenyl]imi-dazo[1,2-a]pyrazin-8-yl]amino]-2-methylbenzoyl]-N-[2-(methylamino)ethyl]piperidine-4-carboxamide; hydrochloride], the IC90 turned out to be 340 nM.
Regarding `Cc1cc(Nc2nccn3c(-c4ccc(OC(F)F)cc4)cnc23)ccc1C(=O)N1CCC2(CCNCC2)CC1` [Example 359, 3,9-diazaspiro[5.5]undecan-3-yl-[4-[[3-[4-(difluoromethoxy)phenyl]imi-dazo[1,2-a]pyrazin-8-yl]amino]-2-methylphenyl]methanone; hy-drochloride], the IC90 stood at 410 nM.
